Patent publication US10696651B2, “Heterocyclic compound” (Takeda Pharmaceutical Company Limited, priority 2016, dated 2020)

Assays:
[1] = tested on: ATF4 expression in human acute lymphoblastic leukemia cell line CCRF-CEM; assay: In vitro ATF4 expression suppression assay (Western blot) in the presence of L-asparaginase; assay type: cell-based; settings: compound concentration 400 nM, L-asparaginase 0.1 U/mL, 4 hr
Procedure: A cell suspension (40 μL) (500000 cells/well) of human acute lymphoblastic leukemia cell line CCRF-CEM obtained from ATCC (American Type Culture Collection) was seeded on a 12 well plate using RPMI1640 medium. The seeded cells were incubated (37° C., 5% CO2) overnight to 24 hr at the longest. L-asparaginase (Sigma-Aldrich Co. LLC.) was dissolved in PBS and treated in each well to a final concentration of 0.1 U/mL. Furthermore, each test compound was dissolved (10 mM) in DMSO, delivered to wells by using TECAN HP D300 (TECAN), and the plate was incubated for 4 hr (37° C., 5% CO2). A well without addition of compound was treated similarly as a control group. […]
Protein extract solution was subjected to protein quantification with BCA Protein Assay Kit (Thermo Scientific), electrophoresed on 7.5-15% SDS-PAGE gel (DRC), and protein in the gel was transferred to PVDF membrane. […] Thereafter, chemiluminescence was performed using ImmunoStar LD (Wako Pure Chemical Industries, Ltd.), and luminescence intensity was measured by LAS-3000 image analyzer (Fuji Film Co., Ltd.). Furthermore, the expression level of ATF4 was digitized by quantifying the luminescence intensity using Multi Gauge Ver. […]

[2] = tested on: human acute lymphoblastic leukemia cell line CCRF-CEM; assay: In vitro tumor proliferation inhibitory assay with combined use of asparaginase; assay type: cell-based; settings: compound concentration 100 nM, L-asparaginase 0.1 U/mL, 72 hr, read-out: in vitro cell proliferation inhibitory rate (%)
Procedure: A cell suspension (40 μL) (5000 cells/well) of human acute lymphoblastic leukemia cell line CCRF-CEM obtained from ATCC (American Type Culture Collection) was seeded on a 384 well plate using RPMI1640 medium. The seeded cells were incubated (37° C., 5% CO2) overnight to 24 hr at the longest. L-asparaginase (Sigma-Aldrich Co. LLC.) was dissolved in PBS and treated in each well to a final concentration of 0.1 U/mL. Furthermore, each test compound was dissolved (10 mM) in DMSO, delivered to wells by using TECAN HP D300 (TECAN), and the plate was incubated for 72 hr (37° C., 5% CO2). A well without addition of compound was treated similarly as a control group. […] After incubation for 10 min, cell proliferation inhibitory rate was measured by the amount of ATP which is a cell viability marker.
Luminescence of cells showing ATP amount was measured using ARVO MX (PerkinElmer). Based on the luminescence value of the control group without addition of test compound solution and the treatment group with addition of test compound, the cell proliferation inhibitory rate (%) of the test compound at a compound concentration of 100 nM was calculated by the following formula and the results thereof are shown in Table 7. Inhibitory rate (%)=(1−(luminescence value of treatment group)÷(luminescence value of control group))×100

[3] = tested on: human acute lymphoblastic leukemia cells CCRF-CEM; assay: In vivo tumor proliferation inhibitory assay with combined use of asparaginase (CCRF-CEM xenograft); settings: CCRF-CEM xenograft in SCID mouse; for in vivo tumor proliferation inhibitory rate (%), GCN2 inhibitor: GCN2 inhibitor alone
Source text: One million human acute lymphoblastic leukemia cells CCRF-CEM obtained from ATCC (American Type Culture Collection) were suspended in Matrigel solution (Corning) and implanted subcutaneously into 6-week-old female SCID mouse (CLEA Japan, Inc.) by injection. The mice in which the tumor engrafted to a size of about 200 mm^3 tumor volume after transplantation were selected and 5 mice per group were used for the experiment. A 0.5% methylcellulose suspension of the compound was orally administered twice per day for 9 days. Each compound was administered twice per day and the dose was 10 mg/kg for Example 14 and Example 7, and 6 mg/kg for Example 4. L-asparaginase (Kyowa Hakko Kogyo Co., Ltd.) was subcutaneously administered once per day at a dose of 1000 U/kg. Tumor diameter was measured one day before start of the administration and day 9 of the administration, and the tumor volume was calculated by the formula 1. tumor volume=major axis×minor axis×minor axis×(½) Formula 1
Tumor proliferation inhibitory rate (%) was calculated by the formula 2. tumor proliferation inhibitory rate (%)=(1−(T9−T0)/(C9−C0))×100 Formula 2 T9: average tumor volume of test drug administration group on day 9 of administration, T0: average tumor volume of test drug administration group one day before start of administration, C9: average tumor volume of control group on day 9 of administration, C0: average tumor volume of control group one day before start of administration

Structure (SMILES)	in vitro ATF4 expression inhibition ratio (%) [1]	inhibition at 0.1 µM [2]	in vivo tumor proliferation inhibitory rate (%), GCN2 inhibitor ([3]; 6 mg/kg oral twice per day for 9 days)	in vivo tumor proliferation inhibitory rate (%), combined use ([3]; compound 6 mg/kg oral twice per day for 9 days combined with L-asparaginase 1000 U/kg s.c. once per day)	in vivo tumor proliferation inhibitory rate (%), GCN2 inhibitor ([3]; 10 mg/kg oral twice per day for 9 days)	in vivo tumor proliferation inhibitory rate (%), combined use ([3]; compound 10 mg/kg oral twice per day for 9 days combined with L-asparaginase 1000 U/kg s.c. once per day)
Nc1ncc(C#Cc2c(F)ccc(NS(=O)(=O)c3cc(Cl)cc(CO)c3Cl)c2F)cn1 [Example 4, N-(3-((2-aminopyrimidin-5-yl)ethynyl)-2,4-difluorophenyl)-2,5-dichloro-3-(hydroxymethyl)benzenesulfonamide]	97%	89%	2%	60%		
COc1ncc(Cl)cc1S(=O)(=O)Nc1ccc(F)c(C#Cc2cnc(N)nc2)c1F [Example 7, N-(3-((2-aminopyrimidin-5-yl)ethynyl)-2,4-difluorophenyl)-5-chloro-2-methoxypyridine-3-sulfonamide]	97%	90%			7%	65%
